Columns and labels:
Experiment in all cases: biochemical
Design in all cases: KINOMEscan competition binding panel, per cent of control
Settings in all cases: read-out: %Ctrl @ 2800nM
[1] = target: LRRK2(G2019S) (Homo sapiens, UniProt Q5S007, G2019S)
How it was run: (§1)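 Competition binding panel (KINOMEscan) across 450 human kinases and disease-relevant mutants, run to the contractor's standard protocol. Values are % control: (test signal − positive control signal)/(negative control signal − positive control signal) × 100, with lower values indicating stronger binding.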

[2] = target: T1, IKK-epsilon (Homo sapiens, UniProt Q14164)
T1 construct: gene IKBKE
How it was run: as §1

[3] = target: KIT-autoinhibited (Homo sapiens, UniProt P10721)
How it was run: as §1

[4] = target: SBK1 (Homo sapiens, UniProt Q52WX2)
How it was run: as §1

[5] = target: GSK3A (Homo sapiens, UniProt P49840)
How it was run: as §1

[6] = target: PIK3CA(I800L) (Homo sapiens, UniProt P42336, I800L)
How it was run: as §1

[7] = target: PIK3CA(C420R) (Homo sapiens, UniProt P42336, C420R)
How it was run: as §1

[8] = target: KIT(L576P) (Homo sapiens, UniProt P10721, L576P)
How it was run: as §1

[9] = target: ACVR2A (Homo sapiens, UniProt P27037)
How it was run: as §1

[10] = target: ABL2 (Homo sapiens, UniProt P42684)
How it was run: as §1

[11] = target: HCK (Homo sapiens, UniProt P08631)
How it was run: as §1

[12] = target: PAK3 (Homo sapiens, UniProt O75914)
How it was run: as §1

[13] = target: TNK1 (Homo sapiens, UniProt Q13470)
How it was run: as §1

[14] = target: KIT(V559D) (Homo sapiens, UniProt P10721, V559D)
How it was run: as §1

[15] = target: T2, DMPK2 (Homo sapiens, UniProt Q6DT37)
T2 construct: gene CDC42BPG
How it was run: as §1

[16] = target: EGFR(L858R,T790M) (Homo sapiens, UniProt P00533, L858R/T790M)
How it was run: as §1

[17] = target: INSRR (Homo sapiens, UniProt P14616)
How it was run: as §1

[18] = target: CAMKK1 (Homo sapiens, UniProt Q8N5S9)
How it was run: as §1

[19] = target: MYO3B (Homo sapiens, UniProt Q8WXR4)
How it was run: as §1

[20] = target: FLT3(ITD,D835V) (Homo sapiens, UniProt P36888, D835V/ITD)
How it was run: as §1

[21] = target: TAOK3 (Homo sapiens, UniProt Q9H2K8)
How it was run: as §1

[22] = target: CAMK1G (Homo sapiens, UniProt Q96NX5)
How it was run: as §1

[23] = target: ALK (Homo sapiens, UniProt Q9UM73)
How it was run: as §1

[24] = target: MUSK (Homo sapiens, UniProt O15146)
How it was run: as §1

[25] = target: EPHB6 (Homo sapiens, UniProt O15197)
How it was run: as §1

[26] = target: PRKG1 (Homo sapiens, UniProt Q13976)
How it was run: as §1

Sequence of SBK1 (Q52WX2 whole entry): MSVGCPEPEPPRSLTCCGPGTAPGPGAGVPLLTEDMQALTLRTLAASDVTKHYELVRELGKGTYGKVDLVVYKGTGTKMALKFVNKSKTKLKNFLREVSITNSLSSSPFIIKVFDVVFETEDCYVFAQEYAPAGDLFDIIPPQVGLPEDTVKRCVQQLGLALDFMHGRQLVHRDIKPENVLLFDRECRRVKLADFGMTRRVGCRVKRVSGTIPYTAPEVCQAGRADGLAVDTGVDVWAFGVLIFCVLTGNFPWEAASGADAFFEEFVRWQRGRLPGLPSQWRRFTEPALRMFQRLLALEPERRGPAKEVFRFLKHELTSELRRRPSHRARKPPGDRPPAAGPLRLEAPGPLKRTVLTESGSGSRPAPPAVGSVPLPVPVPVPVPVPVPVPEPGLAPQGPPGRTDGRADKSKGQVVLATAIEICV
Sequence of ALK (Q9UM73 whole entry): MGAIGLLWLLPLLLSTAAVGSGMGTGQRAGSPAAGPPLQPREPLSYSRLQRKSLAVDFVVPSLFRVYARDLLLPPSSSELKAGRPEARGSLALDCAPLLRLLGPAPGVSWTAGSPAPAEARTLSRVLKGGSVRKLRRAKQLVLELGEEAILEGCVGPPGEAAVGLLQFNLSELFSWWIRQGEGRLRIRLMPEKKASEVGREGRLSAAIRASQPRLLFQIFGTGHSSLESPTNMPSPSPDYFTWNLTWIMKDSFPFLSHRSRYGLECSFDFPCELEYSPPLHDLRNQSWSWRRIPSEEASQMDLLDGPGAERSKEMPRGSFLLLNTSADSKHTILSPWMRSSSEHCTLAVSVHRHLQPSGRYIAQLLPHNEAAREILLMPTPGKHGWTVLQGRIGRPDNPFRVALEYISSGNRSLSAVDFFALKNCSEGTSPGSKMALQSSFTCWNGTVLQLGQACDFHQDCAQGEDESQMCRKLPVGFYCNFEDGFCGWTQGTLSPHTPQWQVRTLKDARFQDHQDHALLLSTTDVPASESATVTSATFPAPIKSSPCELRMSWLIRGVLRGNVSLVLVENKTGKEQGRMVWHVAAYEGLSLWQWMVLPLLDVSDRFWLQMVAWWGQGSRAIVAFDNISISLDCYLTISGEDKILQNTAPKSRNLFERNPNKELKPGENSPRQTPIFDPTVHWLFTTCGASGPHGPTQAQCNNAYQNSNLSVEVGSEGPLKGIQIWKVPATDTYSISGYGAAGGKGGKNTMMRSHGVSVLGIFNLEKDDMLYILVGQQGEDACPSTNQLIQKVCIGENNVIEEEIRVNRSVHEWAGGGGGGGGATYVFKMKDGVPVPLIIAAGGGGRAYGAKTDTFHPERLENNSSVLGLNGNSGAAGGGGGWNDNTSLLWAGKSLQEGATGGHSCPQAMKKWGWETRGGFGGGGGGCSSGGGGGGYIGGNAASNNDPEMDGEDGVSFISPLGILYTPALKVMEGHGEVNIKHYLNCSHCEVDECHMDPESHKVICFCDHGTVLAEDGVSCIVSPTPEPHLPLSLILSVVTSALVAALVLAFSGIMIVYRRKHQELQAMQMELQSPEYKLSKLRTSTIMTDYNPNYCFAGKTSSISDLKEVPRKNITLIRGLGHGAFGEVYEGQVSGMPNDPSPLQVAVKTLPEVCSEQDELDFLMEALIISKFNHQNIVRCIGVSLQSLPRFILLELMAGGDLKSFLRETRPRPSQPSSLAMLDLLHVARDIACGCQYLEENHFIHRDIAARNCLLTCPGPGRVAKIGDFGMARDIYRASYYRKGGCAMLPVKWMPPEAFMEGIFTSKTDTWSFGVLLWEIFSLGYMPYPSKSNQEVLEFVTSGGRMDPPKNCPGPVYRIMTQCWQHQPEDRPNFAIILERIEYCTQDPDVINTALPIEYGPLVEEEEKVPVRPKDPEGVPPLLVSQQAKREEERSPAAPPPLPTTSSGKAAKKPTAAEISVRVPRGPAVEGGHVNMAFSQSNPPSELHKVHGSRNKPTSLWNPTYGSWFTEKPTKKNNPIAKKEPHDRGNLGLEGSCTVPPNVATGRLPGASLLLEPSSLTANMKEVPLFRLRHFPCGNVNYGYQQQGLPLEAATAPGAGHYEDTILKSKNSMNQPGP
Sequence of PIK3CA(I800L) (P42336 whole entry I800L): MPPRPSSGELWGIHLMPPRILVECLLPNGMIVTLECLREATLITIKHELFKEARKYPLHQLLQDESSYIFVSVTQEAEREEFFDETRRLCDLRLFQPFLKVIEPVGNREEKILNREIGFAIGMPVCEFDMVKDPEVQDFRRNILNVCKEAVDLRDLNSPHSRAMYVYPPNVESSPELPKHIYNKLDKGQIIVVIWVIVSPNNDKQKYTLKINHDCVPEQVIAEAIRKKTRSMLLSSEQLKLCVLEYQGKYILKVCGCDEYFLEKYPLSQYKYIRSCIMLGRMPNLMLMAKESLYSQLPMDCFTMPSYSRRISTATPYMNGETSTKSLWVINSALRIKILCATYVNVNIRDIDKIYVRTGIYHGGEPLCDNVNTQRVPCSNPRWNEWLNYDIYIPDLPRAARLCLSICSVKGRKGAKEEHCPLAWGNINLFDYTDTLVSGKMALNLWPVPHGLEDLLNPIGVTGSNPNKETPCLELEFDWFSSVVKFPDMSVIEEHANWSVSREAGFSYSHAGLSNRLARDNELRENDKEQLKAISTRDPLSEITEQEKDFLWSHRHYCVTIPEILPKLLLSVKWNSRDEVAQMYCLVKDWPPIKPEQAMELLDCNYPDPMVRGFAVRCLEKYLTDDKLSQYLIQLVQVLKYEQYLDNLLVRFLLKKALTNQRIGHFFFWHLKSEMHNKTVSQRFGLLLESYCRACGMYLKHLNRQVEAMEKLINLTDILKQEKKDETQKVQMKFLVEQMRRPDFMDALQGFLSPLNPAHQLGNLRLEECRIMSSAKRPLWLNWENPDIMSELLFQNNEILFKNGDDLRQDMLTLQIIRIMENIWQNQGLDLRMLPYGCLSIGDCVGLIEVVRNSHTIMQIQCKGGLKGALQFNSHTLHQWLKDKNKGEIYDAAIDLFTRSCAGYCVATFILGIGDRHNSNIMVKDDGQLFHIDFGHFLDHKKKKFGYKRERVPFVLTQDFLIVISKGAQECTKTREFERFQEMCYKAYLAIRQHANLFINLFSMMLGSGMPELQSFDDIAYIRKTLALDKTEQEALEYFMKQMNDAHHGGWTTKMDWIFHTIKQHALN
T2 sequence (Q6DT37 whole entry): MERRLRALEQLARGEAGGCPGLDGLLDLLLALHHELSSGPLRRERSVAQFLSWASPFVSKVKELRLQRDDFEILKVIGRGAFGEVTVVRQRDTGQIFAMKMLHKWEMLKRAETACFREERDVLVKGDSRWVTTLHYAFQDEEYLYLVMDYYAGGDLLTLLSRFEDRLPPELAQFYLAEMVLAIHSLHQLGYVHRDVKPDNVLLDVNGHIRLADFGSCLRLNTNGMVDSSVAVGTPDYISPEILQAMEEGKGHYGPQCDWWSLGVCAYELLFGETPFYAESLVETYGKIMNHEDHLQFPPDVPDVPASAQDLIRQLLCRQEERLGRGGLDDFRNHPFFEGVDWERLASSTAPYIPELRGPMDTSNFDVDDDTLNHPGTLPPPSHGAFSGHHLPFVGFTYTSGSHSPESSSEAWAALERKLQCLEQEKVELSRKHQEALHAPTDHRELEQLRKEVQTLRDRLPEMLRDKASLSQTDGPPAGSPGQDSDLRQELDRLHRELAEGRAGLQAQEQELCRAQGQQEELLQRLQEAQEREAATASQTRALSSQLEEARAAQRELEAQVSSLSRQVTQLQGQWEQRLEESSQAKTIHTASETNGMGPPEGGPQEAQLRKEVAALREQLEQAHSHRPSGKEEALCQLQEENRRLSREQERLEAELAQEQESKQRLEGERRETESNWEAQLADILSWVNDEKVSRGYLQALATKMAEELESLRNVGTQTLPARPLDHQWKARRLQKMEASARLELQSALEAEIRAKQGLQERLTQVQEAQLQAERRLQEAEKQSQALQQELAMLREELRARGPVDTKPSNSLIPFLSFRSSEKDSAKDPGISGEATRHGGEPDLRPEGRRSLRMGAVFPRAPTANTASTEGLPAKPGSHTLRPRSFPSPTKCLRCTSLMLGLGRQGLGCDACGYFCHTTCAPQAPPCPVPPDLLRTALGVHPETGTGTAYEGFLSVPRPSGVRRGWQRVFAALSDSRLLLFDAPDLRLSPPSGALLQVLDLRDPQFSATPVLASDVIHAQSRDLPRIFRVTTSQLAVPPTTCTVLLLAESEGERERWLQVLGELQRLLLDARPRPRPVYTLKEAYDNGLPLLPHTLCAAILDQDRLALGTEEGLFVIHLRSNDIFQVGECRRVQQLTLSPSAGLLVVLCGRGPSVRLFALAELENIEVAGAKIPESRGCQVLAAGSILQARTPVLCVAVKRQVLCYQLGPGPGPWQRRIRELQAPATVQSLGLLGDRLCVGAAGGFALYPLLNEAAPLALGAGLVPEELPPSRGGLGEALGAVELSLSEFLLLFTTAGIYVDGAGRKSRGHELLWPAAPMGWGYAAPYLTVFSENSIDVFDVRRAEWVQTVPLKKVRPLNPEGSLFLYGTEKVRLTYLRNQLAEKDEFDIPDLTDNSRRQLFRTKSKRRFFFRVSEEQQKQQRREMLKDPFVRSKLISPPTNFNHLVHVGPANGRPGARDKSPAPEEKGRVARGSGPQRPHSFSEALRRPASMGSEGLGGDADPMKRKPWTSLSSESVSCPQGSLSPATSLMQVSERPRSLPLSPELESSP
Sequence of PIK3CA(C420R) (P42336 whole entry C420R): as the sequence (P42336 whole entry I800L) above, with C420R, L800I counted along it

[O-][S@@+](Cc1cncs1)C(c1ccccc1)c1ccccc1 [S-CE-123, (S)-5-((Benzhydrylsulfinyl)Methyl)Thiazole]
remaining binding at 2.8 µM [1]: 96% | remaining binding at 2.8 µM [2]: 98% | remaining binding at 2.8 µM [3]: 86% | remaining binding at 2.8 µM [4]: 100% | remaining binding at 2.8 µM [5]: 99% | remaining binding at 2.8 µM [6]: 84% | remaining binding at 2.8 µM [7]: 92% | remaining binding at 2.8 µM [8]: 99% | remaining binding at 2.8 µM [9]: 100% | remaining binding at 2.8 µM [10]: 99% | remaining binding at 2.8 µM [11]: 99% | remaining binding at 2.8 µM [12]: 70% | remaining binding at 2.8 µM [13]: 74% | remaining binding at 2.8 µM [14]: 97% | remaining binding at 2.8 µM [15]: 88% | remaining binding at 2.8 µM [16]: 99% | remaining binding at 2.8 µM [17]: 94% | remaining binding at 2.8 µM [18]: 95% | remaining binding at 2.8 µM [19]: 52% | remaining binding at 2.8 µM [20]: 100% | remaining binding at 2.8 µM [21]: 91% | remaining binding at 2.8 µM [22]: 82% | remaining binding at 2.8 µM [23]: 100% | remaining binding at 2.8 µM [24]: 100% | remaining binding at 2.8 µM [25]: 89% | remaining binding at 2.8 µM [26]: 100%

Source: publication PMC10046369, “Low-Affinity/High-Selectivity Dopamine Transport Inhibition Sufficient to Rescue Cognitive Functions in the Aging Rat” (Biomolecules, 2023)
